Measurements as given in patent US7504400B2, “MTP inhibiting aryl piperydines or piperazines substituted with 5-membered heterocycles” (Janssen Pharmaceutica N.V., priority 2004, dated 2009).

System: Secretion of ApoB
Experiment: Quantification of the secretion of ApoB in HepG2 cells
Format: cell-based
Conditions: Homo sapiens, HepG2, 24 h, 24 hours of incubation with test compound, immunoprecipitation of apoB from medium, read-out: pIC50 value (=-log IC50 value), secretion of ApoB (converted)
Description: HepG2 cells were cultured in 24-well plates in MEM Rega 3 containing 10% fetal calf serum. At 70% confluency, the medium was changed and the test compound or carrier (DMSO, 0.4% final concentration) was added. After 24 hours of incubation, the medium was transferred to Eppendorf tubes and cleared by centrifugation. A sheep antibody directed against either apoB was added to the supernatant and the mixture was kept at 8° C. for 24 hours. Then, rabbit anti-sheep antibody was added and the immune complex was allowed to precipitate for 24 hours at 8° C. The immunoprecipitate was pelleted by centrifugation for 25 minutes at 1320 g and washed twice with a buffer containing 40 mM Mops, 40 mM NaH2PO4, 100 mM NaF, 0.2 mM DTT, 5 mM EDTA, 5 mM EGTA, 1% Triton-X-100, 0.5% sodium deoxycholate (DOC), 0.1% SDS, 0.2 μM leupeptin and 0.2 μM PMSF. Radioactivity in the pellet was quantified by liquid scintillation-counting. The IC50 values are usually converted to pIC50 values (=−log IC50 value) for ease of use.

Row | SMILES | IC50
1 | CCCNC(=O)C(c1ccccc1)C1CCN(c2ccc(-n3cnn(C(C)C)c3=O)cc2)CC1 (stereo not drawn) [Compound 99] | 31.6 to 316 nM
2 | CNC(=O)C(CN1CCN(c2ccc(-n3cnn(C(C)C)c3=O)cc2)CC1)c1ccccc1 (stereo not drawn) [Compound 100] | 31.6 to 316 nM
3 | CCNC(=O)C(CN1CCN(c2ccc(-n3cnn(C(C)C)c3=O)cc2)CC1)c1ccccc1 (stereo not drawn) [Compound 101] | 31.6 to 316 nM
4 | CC(C)n1ncn(-c2ccc(N3CCN(CC(C(=O)NCCC#N)c4ccccc4)CC3)cc2)c1=O (stereo not drawn) [Compound 102] | 316 to 3160 nM
5 | C=CCNC(=O)C(CN1CCN(c2ccc(-n3cnn(C(C)C)c3=O)cc2)CC1)c1ccccc1 (stereo not drawn) [Compound 103] | 31.6 to 316 nM
6 | CC(C)n1ncn(-c2ccc(N3CCN(CC(C(=O)NC4CC4)c4ccccc4)CC3)cc2)c1=O (stereo not drawn) [Compound 104] | 316 to 3160 nM
7 | COCCNC(=O)C(CN1CCN(c2ccc(-n3cnn(C(C)C)c3=O)cc2)CC1)c1ccccc1 (stereo not drawn) [Compound 105] | 316 to 3160 nM
8 | CCCCNC(=O)C(CN1CCN(c2ccc(-n3cnn(C(C)C)c3=O)cc2)CC1)c1ccccc1 (stereo not drawn) [Compound 106] | 31.6 to 316 nM
9 | CC(C)CNC(=O)C(CN1CCN(c2ccc(-n3cnn(C(C)C)c3=O)cc2)CC1)c1ccccc1 (stereo not drawn) [Compound 107] | 316 to 3160 nM
10 | COC(CNC(=O)C(CN1CCN(c2ccc(-n3cnn(C(C)C)c3=O)cc2)CC1)c1ccccc1)OC (stereo not drawn) [Compound 108] | 316 to 3160 nM
11 | CCCCCNC(=O)C(CN1CCN(c2ccc(-n3cnn(C(C)C)c3=O)cc2)CC1)c1ccccc1 (stereo not drawn) [Compound 109] | 31.6 to 316 nM
12 | CCC(C)n1ncn(-c2ccc(N3CCN(C(C(=O)NCCC#N)c4ccccc4)CC3)cc2)c1=O (stereo not drawn) [Compound 110] | 31.6 to 316 nM
13 | CCCCCNC(=O)C(c1ccccc1)N1CCN(c2ccc(-n3c(C)nn(C(C)C)c3=O)cc2)CC1 (stereo not drawn) [Compound 111] | 316 to 3160 nM
14 | Cc1nn(C(C)C)c(=O)n1-c1ccc(N2CCN(C(C(=O)Nc3ccccc3)c3ccccc3)CC2)cc1 (stereo not drawn) [Compound 112] | 316 to 3160 nM
15 | CCNC(=O)C(c1ccccc1)N1CCN(c2ccc(-n3ncn(C(C)C)c3=O)cc2)CC1 (stereo not drawn) [Compound 113] | 31.6 to 316 nM
16 | CCCNC(=O)C(c1ccccc1)N1CCN(c2ccc(-n3ncn(C(C)C)c3=O)cc2)CC1 (stereo not drawn) [Compound 114] | 316 to 3160 nM
17 | CC(C)NC(=O)C(c1ccccc1)N1CCN(c2ccc(-n3ncn(C(C)C)c3=O)cc2)CC1 (stereo not drawn) [Compound 115] | 316 to 3160 nM
18 | C=CCNC(=O)C(c1ccccc1)N1CCN(c2ccc(-n3ncn(C(C)C)c3=O)cc2)CC1 (stereo not drawn) [Compound 116] | 316 to 3160 nM
19 | COCCNC(=O)C(c1ccccc1)N1CCN(c2ccc(-n3ncn(C(C)C)c3=O)cc2)CC1 (stereo not drawn) [Compound 117] | 316 to 3160 nM
20 | CCCCNC(=O)C(c1ccccc1)N1CCN(c2ccc(-n3ncn(C(C)C)c3=O)cc2)CC1 (stereo not drawn) [Compound 118] | 316 to 3160 nM
21 | CC(C)CNC(=O)C(c1ccccc1)N1CCN(c2ccc(-n3ncn(C(C)C)c3=O)cc2)CC1 (stereo not drawn) [Compound 119] | 316 to 3160 nM
22 | CCCCCNC(=O)C(c1ccccc1)N1CCN(c2ccc(-n3ncn(C(C)C)c3=O)cc2)CC1 (stereo not drawn) [Compound 120] | 316 to 3160 nM
23 | CC(C)n1cnn(-c2ccc(N3CCN(C(C(=O)NCc4ccccn4)c4ccccc4)CC3)cc2)c1=O (stereo not drawn) [Compound 121] | 316 to 3160 nM

Row | SMILES | IC50
24 | CC(C)n1cnn(-c2ccc(N3CCN(C(C(=O)NCC(F)(F)F)c4ccccc4)CC3)cc2)c1=O (stereo not drawn) [Compound 122] | 316 to 3160 nM
25 | CC(C)n1cnn(-c2ccc(N3CCN(C(C(=O)NCc4ccccc4)c4ccccc4)CC3)cc2)c1=O (stereo not drawn) [Compound 123] | 31.6 to 316 nM
26 | CCCn1ncn(-c2ccc(N3CCN(C(C(=O)Nc4ccccc4)c4ccccc4)CC3)cc2)c1=O (stereo not drawn) [Compound 124] | 31.6 to 316 nM
27 | Cc1cnc(NC(=O)C(c2ccccc2)N2CCN(c3ccc(-n4cnn(C(C)C)c4=O)cc3)CC2)s1 (stereo not drawn) [Compound 125] | 31.6 to 316 nM
28 | CC(C)n1ncn(-c2ccc(N3CCN(C(C(=O)NCc4ccc(N)cc4)c4ccccc4)CC3)cc2)c1=O (stereo not drawn) [Compound 126] | 316 to 3160 nM
29 | CC(C)n1ncn(-c2ccc(N3CCN(C(C(=O)NCc4nc5ccccc5[nH]4)c4ccccc4)CC3)cc2)c1=O (stereo not drawn) [Compound 127] | 316 to 3160 nM
30 | CCCNC(=O)C(CN1CCN(c2ccc(-n3cnn(C(C)C)c3=O)cc2)CC1)c1ccccc1 (stereo not drawn) [Compound 128] | 31.6 to 316 nM
31 | CC(C)n1ncn(-c2ccc(N3CCN(CC(C(=O)Nc4ccccc4)c4ccccc4)CC3)cc2)c1=O (stereo not drawn) [Compound 129] | 316 to 3160 nM
32 | CC(C)n1ncn(-c2ccc(N3CCN(CC(C(=O)NCc4ccccc4)c4ccccc4)CC3)cc2)c1=O (stereo not drawn) [Compound 130] | 316 to 3160 nM
33 | COCCNC(=O)C(c1ccccc1)N1CCN(c2ccc(-n3cnn(C(C)C)c3=O)cc2)CC1 (stereo not drawn) [Compound 131] | 316 to 3160 nM
34 | CC(C)n1ncn(-c2ccc(N3CCN(C(C(=O)NCCC#N)c4ccccc4)CC3)cc2)c1=O (stereo not drawn) [Compound 132] | 316 to 3160 nM
35 | CCNC(=O)C(c1ccccc1)(c1ccccc1)N1CCN(c2ccc(-n3cnn(C(C)C)c3=O)cc2)CC1 [Compound 133] | 316 to 3160 nM
36 | CCCNC(=O)C(c1ccccc1)(c1ccccc1)N1CCN(c2ccc(-n3cnn(C(C)C)c3=O)cc2)CC1 [Compound 134] | 316 to 3160 nM
37 | CC(C)NC(=O)C(c1ccccc1)(c1ccccc1)N1CCN(c2ccc(-n3cnn(C(C)C)c3=O)cc2)CC1 [Compound 135] | 316 to 3160 nM
38 | CNC(=O)C(c1ccccc1)N1CCN(c2ccc(-n3cnn(C(C)C)c3=O)cc2)CC1 (stereo not drawn) [Compound 136] | 316 to 3160 nM
39 | CC(C)n1ncn(-c2ccc(N3CCN(C(C(=O)N(C)C)c4ccccc4)CC3)cc2)c1=O (stereo not drawn) [Compound 137] | 316 to 3160 nM
40 | CCOC(=O)C(CN1CCN(c2ccc(-n3cnn(C(C)C)c3=O)cc2)CC1)c1ccccc1 (stereo not drawn) [Compound 138] | 316 to 3160 nM
41 | CCNC(=O)C(c1ccccc1)N1CCC(c2ccc(-n3cnn(C(C)C)c3=O)cc2)CC1 (stereo not drawn) [Compound 139] | 31.6 to 316 nM
42 | CC(C)NC(=O)C(c1ccccc1)N1CCC(c2ccc(-n3cnn(C(C)C)c3=O)cc2)CC1 (stereo not drawn) [Compound 140] | 31.6 to 316 nM
43 | CNC(=O)C(c1ccccc1)N1CCC(c2ccc(-n3cnn(C(C)C)c3=O)cc2)CC1 (stereo not drawn) [Compound 142] | 31.6 to 316 nM
44 | CC(C)n1ncn(-c2ccc(C3CCN(C(C(=O)NCC(F)(F)F)c4ccccc4)CC3)cc2)c1=O (stereo not drawn) [Compound 143] | 31.6 to 316 nM
45 | CC(C)n1ncn(-c2ccc(C3CCN(C(C(=O)N(C)C)c4ccccc4)CC3)cc2)c1=O (stereo not drawn) [Compound 144] | 316 to 3160 nM
46 | CC(C)n1ncn(-c2ccc(N3CCN(C(C(N)=O)c4ccccc4)CC3)cc2)c1=O (stereo not drawn) [Compound 145] | 316 to 3160 nM

Row | SMILES | IC50
47 | COC(=O)C(c1ccccc1)N1CCN(c2ccc(-n3cnn(C(C)C)c3=O)cn2)CC1 (stereo not drawn) [Compound 146] | 316 to 3160 nM
48 | CC(C)n1ncn(-c2ccc(N3CCN(CCC(C(=O)N(C)C)(c4ccccc4)c4ccccc4)CC3)cc2)c1=O [Compound 147] | 316 to 3160 nM
49 | CCCNC(=O)C(c1ccccc1)C1CCN(c2ccc(-n3cnn(CC)c3=O)cc2)CC1 (stereo not drawn) [Compound 148] | 316 to 3160 nM
50 | CCCNC(=O)C(c1ccccc1)C1CCN(c2ccc(-n3cnn(CCC)c3=O)cc2)CC1 (stereo not drawn) [Compound 149] | 316 to 3160 nM
51 | CCCCn1ncn(-c2ccc(N3CCC(C(C(=O)NCCC)c4ccccc4)CC3)cc2)c1=O (stereo not drawn) [Compound 150] | 31.6 to 316 nM
52 | CCCCCn1ncn(-c2ccc(N3CCC(C(C(=O)NCCC)c4ccccc4)CC3)cc2)c1=O (stereo not drawn) [Compound 151] | 31.6 to 316 nM
53 | C=CCn1ncn(-c2ccc(N3CCC(C(C(=O)NCCC)c4ccccc4)CC3)cc2)c1=O (stereo not drawn) [Compound 152] | 316 to 3160 nM
54 | CCCNC(=O)C(c1ccccc1)C1CCN(c2ccc(-n3cnn(CC(C)C)c3=O)cc2)CC1 (stereo not drawn) [Compound 153] | 31.6 to 316 nM
55 | CCCNC(=O)C(c1ccccc1)C1CCN(c2ccc(-n3cnn(CC4CC4)c3=O)cc2)CC1 (stereo not drawn) [Compound 154] | 31.6 to 316 nM
56 | CCCNC(=O)C(c1ccccc1)C1CCN(c2ccc(-n3cnn(Cc4ccccc4)c3=O)cc2)CC1 (stereo not drawn) [Compound 155] | 31.6 to 316 nM
57 | CCCCn1ncn(-c2ccc(N3CCC(C(C(=O)NCc4ccccc4)c4ccccc4)CC3)cc2)c1=O (stereo not drawn) [Compound 156] | 31.6 to 316 nM
58 | CCCCCn1ncn(-c2ccc(N3CCC(C(C(=O)NCc4ccccc4)c4ccccc4)CC3)cc2)c1=O (stereo not drawn) [Compound 157] | 31.6 to 316 nM
59 | O=C(NCc1ccccc1)C(c1ccccc1)C1CCN(c2ccc(-n3cnn(Cc4ccccc4)c3=O)cc2)CC1 (stereo not drawn) [Compound 158] | 31.6 to 316 nM
60 | COC(=O)C(c1ccccc1)N1CCN(c2ccc(-n3nc(C)n(C(C)C)c3=O)cc2)CC1 (stereo not drawn) [Compound 159] | 316 to 3160 nM
61 | CC(C)n1ncn(-c2ccc(N3CCN(CCCC(C(=O)Nc4ccccc4)c4ccccc4)CC3)cc2)c1=O (stereo not drawn) [Compound 160] | 316 to 3160 nM
62 | CCNC(=O)C(CCN1CCN(c2ccc(-n3cnn(C(C)C)c3=O)cc2)CC1)c1ccccc1 (stereo not drawn) [Compound 161] | 316 to 3160 nM
63 | CC(C)n1ncn(-c2ccc(N3CCN(CCC(C(=O)NCc4ccccc4)c4ccccc4)CC3)cc2)c1=O (stereo not drawn) [Compound 162] | 316 to 3160 nM
64 | CCNC(=O)C(c1ccccc1)N1CCN(c2ccc(-n3cnn(C(C)C)c3=O)cc2)CC1 (stereo not drawn) [Compound 163] | 31.6 to 316 nM
65 | CCCNC(=O)C(c1ccccc1)N1CCN(c2ccc(-n3cnn(C(C)C)c3=O)cc2)CC1 (stereo not drawn) [Compound 164] | 31.6 to 316 nM
66 | CC(C)n1ncn(-c2ccc(N3CCN(C(C(=O)NCc4ccccc4)c4ccccc4)CC3)cc2)c1=O (stereo not drawn) [Compound 165] | 316 to 3160 nM
67 | CC(C)n1ncn(-c2ccc(N3CCN(C(C(=O)NCC(F)(F)F)c4ccccc4)CC3)cc2)c1=O (stereo not drawn) [Compound 166] | 316 to 3160 nM
68 | Cn1ncn(-c2ccc(N3CCC(C(C(=O)NCc4ccccc4)c4ccccc4)CC3)cc2)c1=O (stereo not drawn) [Compound 167] | 316 to 3160 nM
69 | CC(C)n1ncn(-c2ccc(N3CCC(C(C(=O)NCc4ccccc4)c4ccccc4)CC3)cc2)c1=O (stereo not drawn) [Compound 168] | 31.6 to 316 nM
